Read-outs that look alike come from different tables or passages of the source.
Experiments:
[1] = tested on: HeLa cells; test: Kinetic changes in levels of NO and ROS in HeLa cells, wide-field fluorescence microscopy (Example 3); type: cell-based, Human; conditions: 1 mM L-arginine; for time after treatment at which DAQ signal (NO) was detectable: 1 μM A23187, FIG. 5A; for NO levels (DAQ signal) / ROS production (FIGS. 5B and 5C): 10-60 min treatment; for NO levels (DAQ signal): 1 μM A23187, 0.2 mM antimycin A, 0.1 mM pyocyanin or combination, FIG. 5A; for ROS production (FIGS. 5B and 5C): 0.2 mM antimycin A, 0.1 mM pyocyanin
Description: HeLa cells were cultured and plated as described in Example 1. On the day of the experiment, cells were loaded with 50 μM of DAQ, 1 l-1M of DCFDA and HE for 2 h, 37° C. and induced with different ROS and NO inducers (1 μM of A23187, 0.2 mM of antimycin A, 1 mM of L-arginine, 0.1 mM of pyocyanin or combination of L-arginine and pyocyanin) at 37° C. Samples for fluorescent microscopy were prepared after 10, 20, 30, 45 and 60 min of treatment as described in Example 1 and analyzed using an Olympus wide field fluorescent microscope (set of filters as described in the Table 2).

[2] = ROS-generating system: ROO−; cited from earlier work
[3] = ROS-generating system: •OH; cited from earlier work
[4] = ROS-generating system: ONOO−; cited from earlier work
[5] = ROS-generating system: 1O2; cited from earlier work
[6] = ROS-generating system: H2O2; cited from earlier work
[7] = ROS-generating system: NO; cited from earlier work
[8] = ROS-generating system: O2•−; cited from earlier work
[9] = ROS-generating system: •OCl; cited from earlier work
[10] = tested on: cells; conditions: cited from earlier work
[11] = cited from earlier work
[12] = neutral pH and extremes of pH; cited from earlier work
[13] = tested on: HeLa cells; test: Multiplexed ROS/RNS detection in HeLa cells by flow cytometry (Example 4); type: cell-based, Human; conditions: for NO production (fluorescence of oxidized DAQ product in FL4): one hour treatment; for NO production (fluorescence of oxidized DAQ product in FL4) / effect of pretreatment on L-arginine-induced FL4 (NO) signal: FIG. 6 top panel
Description: HeLa cells were cultured as described in Example 1. The day before the experiment, the cells were seeded in 6-well tissue culture dishes at a density of 5×10^5 cells per well. On the day of the experiment, the cells were loaded with 50 μM of DAQ, 1 l-1M of DCFDA and HE (solution in culture medium) for 2 h, 37° C. and induced with L-arginine, pyocyanin or their combination, as described in Example 1. To confirm specificity and selectivity of the staining, parallel samples were treated with NAG (general ROC inhibitor) and cPTIO (general NO scavenger and NOS inhibitor). After one hour treatment, the cells were washed with PBS, trypsinized and resuspended in 0.5 ml of PBS. After resuspension, the cells were immediately analyzed by flow cytometry using FAGS Calibur instrument (or any benchtop cytometer equipped with blue and red lasers could be used). Green fluorescence of oxidized DCF was detected in the FL1 channel (excitation with 488 nm blue laser, emission detection with 530/30 BP filter), red fluorescence of DHE was detected in the FL2 channel (excitation with 488 nm blue laser, emission detection with 585/42 BP filter). Fluorescence of oxidized DAQ product was detected in the FL4 channel (excitation with 635 nm red laser, emission detection with 670 LP filter). There was substantial overlap between the oxidized dye spectra; therefore, compensation was required. For compensation purposes, singly stained samples were prepared and compensation was performed using standard protocols.

[14] = tested on: HeLa cells; test: ROS/RNS production in HeLa cells, triple staining DAQ/DCFDA/HE, wide-field fluorescence microscopy (Example 1); type: cell-based, Human; conditions: for effect of pretreatment on ROS production induced by pyocyanin: NAG 5 mM, 3C; for effect of pretreatment on green fluorescence upon combination treatment with L-arginine and pyocyanin: HeLa cells pretreated, ebselen 20 μM, 3D
Description: Human cervical adenocarcinoma epithelial cell line HeLa was obtained from ATCC (ATTC, Manassas, Va.) and was routinely cultured in Dulbecco's modified eagle medium with low glucose (Sigma-Aldrich, St. Louis, Mo.), supplemented with 10% fetal bovine serum heat inactivated (ATCC) and 100 U/ml penicillin, […] streptomycin (Sigma). Cell cultures were maintained in an incubator at 37° C., with 5% CO2 atmosphere. Three ROS/RNS fluorescent probes were dissolved in anhydrous DMF at the following concentrations: DAQ-20 mM (a 400× stock solution), DCFDA-5 mM (a 5000× stock solutions), DHE-5 mM (a 5000× stock solution). Anhydrous organic solvents should be used with DMF being the first choice, since DMSO is a hydroxyl radical scavenger and its presence may affect ROS/RNS production in cellular systems. Stock solutions of the dyes were aliquoted and stored at −20° C. The day before the experiment, HeLa cells were seeded on multiwell microscope slides (Gel-Line™ Brand, Portsmouth, N.H.) at a density of 2×10^4 cells per well. On the next day, the cells were loaded with 50 μM of DAQ, 1 μM of DCFDA and HE (all dilutions were made in growth medium) for 2 h, 37° C. Then the medium containing dyes was removed, the cells were briefly washed with PBS and induced with L-arginine (1 mM), pyocyanin (100 μM) or their combination for 20 min. […] Pretreated cells were induced as described earlier, overlaid with a cover slip and observed under fluorescence microscope.

[15] = tested on: HeLa cells; test: Profiling of ROS induced in HeLa cells by different ROS inducers, DCFDA/HE staining, wide-field fluorescence microscopy (Example 2); type: cell-based, Human; conditions: for ROS types induced (green DCF and orange HE fluorescence): HeLa cells, inducer 1 h 37° C., 0.5 mM pyrogallol, 0.1 mM pyocyanin, 0.1 mM TBHP, FIG. 4A
Description: For purposes of simplifying the assay description, this example was carried out with only two indicator probes, though analogous procedures were employed as in the case where three fluorophores were utilized. Human cervical carcinoma cell line HeLa was cultured as described in Example 1. The day before the experiment, the cells were seeded in multi-well microscope slides (Gel-Line™, Portsmouth, N.H.) at a density of 2×10^4 cells per well. […] After a brief wash with PBS, the cells were stained with 1 l-1M of DGFDA and HE in culture medium for 30 min, 37° C., washed twice with PBS, overlaid with a cover slip and observed under the fluorescent microscope, using green and orange filters described in the Table 2 (FIG. 4A). To perform specific profiling of ROS/RNS, parallel samples of HeLa cells were pretreated for 30 min with 5 mM NAG (general ROS scavenger, FIG. 4B), 5 mM Tiron (specific superoxide scavenger, FIG. 4C), 10 mM pyruvate (specific peroxide scavenger, FIG. 4D). Pretreated cells were induced as described, overlaid with a cover slip and observed under fluorescent microscope using the same set of filters.

[16] = HeLa cells induced 20 min, L-arginine 1 mM, pyocyanin 100 μM or combination, FIG. 3A
[17] = FIG. 6 middle and bottom panels
[18] = HeLa cells pretreated 1 h, cPTIO 20 μM, FIG. 3B
[19] = HeLa cells pretreated with 20 μM ebselen, FIG. 3D

## CNc1ccc2oc(C[C@H]3O[C@@]4(CC[C@H]3C)O[C@H]([C@H](C)C(=O)c3ccc[nH]3)[C@H](C)C[C@H]4C)nc2c1C(=O)O [A23187]
[1]
  time after treatment at which DAQ signal (NO) was detectable: 20 min

## Nc1ccc(Oc2ccc3c(-c4ccccc4C(=O)O)c4ccc(=O)cc-4oc3c2)cc1 [APF, 2-[6-(4′-amino)phenoxy-3H-xanthen-3-on-9-yl]benzoic acid]
[2]
  Fluorescence increase: 2
[3]
  Fluorescence increase: 1200
[4]
  Fluorescence increase: 560
[5]
  Fluorescence increase: 9
[6]
  Fluorescence increase: 1
[7]
  Fluorescence increase: 1
[8]
  Fluorescence increase: 6
[9]
  Fluorescence increase: 3600

## Nc1cc2ccccc2cc1N [DAN, 2,3-diamino naphthalene]
[10]
  cellular toxicity: high cellular toxicity
[11]
  solubility in aqueous solution: poorly soluble

## Nc1ccc2c(c1N)C(=O)c1ccccc1C2=O [DAQ, 1,2-diaminoanthraquinone]
[12]
  pH stability: stable at neutral pH, as well as at extremes of pH

## O=C(O)c1ccccc1-c1c2ccc(=O)cc-2oc2cc(Oc3ccc(O)cc3)ccc12 [HPF, 2-[6-(4′-hydroxyl)phenoxy-3H-xanthen-3-on-9-yl]benzoic acid]
[2]
  Fluorescence increase: 17
[3]
  Fluorescence increase: 730
[4]
  Fluorescence increase: 120
[5]
  Fluorescence increase: 5
[6]
  Fluorescence increase: 2
[7]
  Fluorescence increase: 6
[8]
  Fluorescence increase: 8
[9]
  Fluorescence increase: 6

## N=C(N)NCCC[C@H](N)C(=O)O [L-arginine]
[1]
  time after treatment at which DAQ signal (NO) was detectable: 10 min
  NO levels (DAQ signal): high levels of NO production
  ROS production (FIGS. 5B and 5C): No significant ROS production
[13]
  NO production (fluorescence of oxidized DAQ product in FL4): induced NO production
[14]; [16]
  NO production (oxidized DAQ fluorescence, Cy5 filter): extensive NO production

## CC(=O)N[C@@H](CS)C(=O)O [NAG, N-acetyl-L-cysteine]
[13]; [17]
  effect of pretreatment on pyocyanin-induced ROS production (FL1 and FL2): blocked
[13]
  effect of pretreatment on L-arginine-induced FL4 (NO) signal: not
[15]; HeLa cells pretreated 30 min with 5 mM NAG, then inducers, FIG. 4B
  effect of pretreatment on production of ROS types: abolished the production of all ROS types
[14]; [18]
  effect of pretreatment on ROS production induced by pyocyanin: attenuated ROS induction
[14]; HeLa cells pretreated with 5 mM NAG, FIG. 3C
  general levels of NO production in pretreated cells: increased

## O=C1OC2(c3cc(Cl)c(O)cc3Oc3cc(O)c(Cl)cc32)c2ccccc21 [OCFH, 2′,7′-dichlorofluorescein]
[2]
  Fluorescence increase: 710
[3]
  Fluorescence increase: 7400
[4]
  Fluorescence increase: 6600
[5]
  Fluorescence increase: 26
[6]
  Fluorescence increase: 190
[7]
  Fluorescence increase: 150
[8]
  Fluorescence increase: 67
[9]
  Fluorescence increase: 86

## CC(C)(C)OO [TBHP, tert-butyl hydroperoxide]
[15]
  ROS types induced (green DCF and orange HE fluorescence): majority of peroxide/hydroxyl radicals/peroxynitrite

## O=S(=O)(O)c1cc(O)c(O)c(S(=O)(=O)O)c1 [Tiron]
[15]; HeLa cells pretreated 30 min, 5 mM Tiron or 10 mM pyruvate, FIG. 4C, 4D
  effect of pretreatment on green fluorescence in pyrogallol-treated cells: green fluorescence was increased
[15]; HeLa cells pretreated 30 min with 5 mM Tiron, then inducers, FIG. 4C
  effect of pretreatment on orange fluorescence (superoxide): attenuated only orange fluorescence in all treated cells

## CC1(C)N([O])C(c2ccc(C(=O)[O-])cc2)=[N+]([O-])C1(C)C.[K+] [cPTIO, 2-(4-carboxyphenyl)-4,5-dihydro-4,4,5,5-tetramethyl-1H-imidazolyl-1-oxy-3-oxide, potassium salt]
[13]
  effect of pretreatment on L-arginine-induced FL4 (NO) signal: blocked
[14]; [18]
  effect of pretreatment on ROS production induced by pyocyanin: did not affect ROS production
  effect of pretreatment on NO production upon L-arginine induction: completely abrogated NO production
[14]; cPTIO 20 μM, FIG. 3B
  effect of pretreatment on green fluorescence upon combination treatment with L-arginine and pyocyanin: green fluorescence decreased

## O=c1c2ccccc2[se]n1-c1ccccc1 [ebselen, 2-phenyl-1,2-benzisoselenazol-3[2H]-one]
[14]; [19]
  effect of pretreatment on levels of NO or superoxide in the combination treated sample: did not restore the original levels of NO or superoxide
  effect of pretreatment on peroxynitrite: inactivated peroxynitrite upon its production
[14]; cPTIO 20 μM, FIG. 3B
  effect of pretreatment on green fluorescence upon combination treatment with L-arginine and pyocyanin: decreased significantly

## Cn1c2cccc(=O)c-2nc2ccccc21 [pyocyanin]
[1]
  NO levels (DAQ signal): did not induce any DAQ-detectable signal
  ROS production (FIGS. 5B and 5C): early induction of ROS
[13]; [17]
  ROS production detected in FL1 and FL2 channels: induced significant ROS production
[13]
  NO production (fluorescence of oxidized DAQ product in FL4): did not induce significant NO production
[15]
  ROS types induced (green DCF and orange HE fluorescence): majority of superoxide
[14]; [16]
  NO production (oxidized DAQ fluorescence, Cy5 filter): did not affect NO production
  superoxide production (HE fluorescence, orange filter): induced superoxide production

## Oc1cccc(O)c1O [pyrogallol]
[15]
  ROS types induced (green DCF and orange HE fluorescence): induced mostly superoxide production

## antimycin A
[1]
  NO levels (DAQ signal): did not induce any DAQ-detectable signal
  ROS production (FIGS. 5B and 5C): early induction of ROS

Reference: US20150192564A1, “PROFILING REACTIVE OXYGEN, NITROGEN AND HALOGEN SPECIES” (ENZO LIFE SCIENCES, INC., C/O ENZO BIOCHEM, INC, priority 2008, published 2015)
